In patent publication US9409870B2, “Compounds” (CHIESI FARMACEUTICI S.p.A., priority 2014, dated 2016):
Structures can show the parent of a compound that is named as a salt.

target: T1, human neutrophil elastase (HNE) (Homo sapiens, UniProt P08246); assay: HNE enzyme activity assay (fluorogenic peptide substrate MeOSuc-Ala-Ala-Pro-Val-AMC); assay type: biochemical; settings: human leukocyte elastase 0.00072 U/mL, substrate 100 μM, 25° C., 30 minutes, pH 7.5; at least two separate experiments; read-out: FINE inhibition (HNE enzyme inhibition, IC50 values)
T1 construct: purchased Sigma E8140
T1 sequence (P08246 30-247 limits assumed): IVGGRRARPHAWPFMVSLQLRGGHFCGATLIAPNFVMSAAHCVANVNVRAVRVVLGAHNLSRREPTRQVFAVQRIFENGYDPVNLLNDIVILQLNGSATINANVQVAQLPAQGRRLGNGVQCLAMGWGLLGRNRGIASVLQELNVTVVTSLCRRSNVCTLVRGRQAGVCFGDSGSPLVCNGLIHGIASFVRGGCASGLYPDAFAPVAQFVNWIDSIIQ
Experimental: Compounds of this invention were tested for potency in a human neutrophil elastase (HNE) enzyme activity assay.
Assays were performed in 96-well plates in a total assay volume of 100 μL. The final concentration of elastase enzyme (human leukocyte elastase, Sigma E8140) was 0.00072 U/mL. The peptide substrate (MeOSuc-Ala-Ala-Pro-Val-AMC, Calbiochem #324740) was used at a final concentration of 100 μM. The final concentration of DMSO was 1% in the assay buffer (0.05M Tris.HCl, 0.1M NaCl, 0.1M CaCl2, 0.0005% brij-35, pH 7.5). The enzymatic reaction was started by addition of the enzyme and incubated at 25° C. for 30 minutes. After incubation, the reaction was stopped by addition of soybean trypsin inhibitor (Sigma T9003) at a final concentration of 50 μg/well. Fluorescence was measured using a Molecular Devices fluorescence plate reader using 380 nm excitation and 460 nm emission wavelengths.
A dose response to each compound was performed and the effect of compound in each experiment was expressed as a percentage inhibition of the control enzyme fluorescence. Dose response curves were plotted and compound potency (IC50) was determined. Compounds were tested in at least two separate experiments.

IC50 [nM]	SMILES
< 1	Cc1c(-c2ccnn2-c2ccc(C#N)cc2)n(S(=O)(=O)NC2CCCC2)c(=O)n1-c1cccc(C(F)(F)F)c1 [Example 34, 5-[2-(4-Cyano-phenyl)-2H-pyrazol-3-yl]-4-methyl-2-oxo-3-(3-trifluoromethylphenyl)-2,3-dihydro-imidazole-1-sulfonic acid cyclopentylamide]
1 to 10	Cc1c(-c2ccnn2-c2ccc(C#N)cc2)n(S(=O)(=O)NC2CC2)c(=O)n1-c1cccc(C(F)(F)F)c1 [Example 35, 5-[2-(4-Cyano-phenyl)-2H-pyrazol-3-yl]-4-methyl-2-oxo-3-(3-trifluoromethylphenyl)-2,3-dihydro-imidazole-1-sulfonic acid cyclopropylamide]
1 to 10	Cc1c(-c2ccnn2-c2ccc(C#N)cc2)n(CC(=O)N(C)C2CCC2)c(=O)n1-c1cccc(C(F)(F)F)c1 [Example 40, 2-[5-[2-(4-Cyano-phenyl)-2H-pyrazol-3-yl]-4-methyl-2-oxo-3-(3-trifluoromethyl-phenyl)-2,3-dihydro-imidazol-1-yl]-N-cyclobutyl-N-methyl-acetamide]
< 1	Cc1c(-c2ccnn2-c2ccc(C#N)cc2)n(C(=O)NC2CCC2)c(=O)n1-c1cccc(C(F)(F)F)c1 [Example 41, 5-[2-(4-Cyano-phenyl)-2H-pyrazol-3-yl]-4-methyl-2-oxo-3-(3-trifluoromethyl-phenyl)-2,3-dihydro-imidazole-1-carboxylic acid cyclobutylamide]
< 1	Cc1c(-c2ccnn2-c2ccc(C#N)cc2)n(C(=O)NC2CC2)c(=O)n1-c1cccc(C(F)(F)F)c1 [Example 42, 5-[2-(4-Cyano-phenyl)-2H-pyrazol-3-yl]-4-methyl-2-oxo-3-(3-trifluoromethyl-phenyl)-2,3-dihydro-imidazole-1-carboxylic acid cyclopropylamide]
< 1	CCS(=O)(=O)N1CCC(NC(=O)n2c(-c3ccnn3-c3ccc(C#N)cc3)c(C)n(-c3cccc(C(F)(F)F)c3)c2=O)CC1 [Example 43, 5-[2-(4-Cyano-phenyl)-2H-pyrazol-3-yl]-4-methyl-2-oxo-3-(3-trifluoromethyl-phenyl)-2,3-dihydro-imidazole-1-carboxylic acid (1-ethanesulfonyl-piperidin-4-yl)-amide]
< 1	Cc1c(-c2ccnn2-c2ccc(C#N)cc2)n(C(=O)NC2CCOCC2)c(=O)n1-c1cccc(C(F)(F)F)c1 [Example 44, 5-[2-(4-Cyano-phenyl)-2H-pyrazol-3-yl]-4-methyl-2-oxo-3-(3-trifluoromethyl-phenyl)-2,3-dihydro-imidazole-1-carboxylic acid (tetrahydro-pyran-4-yl)-amide]
< 1	Cc1c(-c2ccnn2-c2ccc(C#N)cc2)n(C(=O)NC2CCCC2)c(=O)n1-c1cccc(C(F)(F)F)c1 [Example 45, 5-[2-(4-Cyano-phenyl)-2H-pyrazol-3-yl]-4-methyl-2-oxo-3-(3-trifluoromethyl-phenyl)-2,3-dihydro-imidazole-1-carboxylic acid cyclopentylamide]
< 1	Cc1c(-c2ccnn2-c2ccc(C#N)cc2)n(C(=O)N[C@@H]2CCN(C)C2)c(=O)n1-c1cccc(C(F)(F)F)c1 [Example 46, 5-[2-(4-Cyano-phenyl)-2H-pyrazol-3-yl]-4-methyl-2-oxo-3-(3-trifluoromethyl-phenyl)-2,3-dihydro-imidazole-1-carboxylic acid ((R)-1-methyl-pyrrolidin-3-yl)-amide]
< 1	Cc1c(-c2ccnn2-c2ccc(C#N)cc2)n(C(=O)N[C@H]2CCN(C)C2)c(=O)n1-c1cccc(C(F)(F)F)c1 [Example 47, 5-[2-(4-Cyano-phenyl)-2H-pyrazol-3-yl]-4-methyl-2-oxo-3-(3-trifluoromethyl-phenyl)-2,3-dihydro-imidazole-1-carboxylic acid ((S)-1-methyl-pyrrolidin-3-yl)-amide]

The next lines start with the compound.

SMILES	IC50 [nM]
Cc1c(-c2ccnn2-c2ccc(C#N)cc2)n(C(=O)NCCC[N+](C)(C)C)c(=O)n1-c1cccc(C(F)(F)F)c1 [Example 24, Benzenesulfonate 3-[({5-[1-(4-cyanophenyl)-1H-pyrazol-5-yl]-4-methyl-2-oxo-3-[3-(trifluoromethyl)phenyl]-2,3-dihydro-1H-imidazol-1-yl}carbonyl)amino]-N,N,N-trimethylpropan-1-aminium]	1 to 10
Cc1c(-c2ccnn2-c2ccc(C#N)cc2)n(C(=O)NCC[N+](C)(C)C)c(=O)n1-c1cccc(C(F)(F)F)c1 [Example 25, Benzenesulfonate 2-[({5-[1-(4-cyanophenyl)-1H-pyrazol-5-yl]-4-methyl-2-oxo-3-[3-(trifluoromethyl)phenyl]-2,3-dihydro-1H-imidazol-1-yl}carbonyl)amino]-N,N,N-trimethylethanaminium]	1 to 10
CCCCn1c(-c2ccnn2-c2ccc(C#N)cc2)c(C)n(-c2cccc(C(F)(F)F)c2)c1=O [Example 26, 4-(5-{3-Butyl-5-methyl-2-oxo-1-[3-(trifluoromethyl)phenyl]-2,3-dihydro-1H-imidazol-4-yl}-1H-pyrazol-1-yl)benzonitrile]	1 to 10
Cc1c(-c2ccnn2-c2ccc(C#N)cc2)n(S(C)(=O)=O)c(=O)n1-c1cccc(C(F)(F)F)c1 [Example 27, 4-(5-{5-Methyl-3-(methylsulfonyl)-2-oxo-1-[3-(trifluoromethyl)phenyl]-2,3-dihydro-1H-imidazol-4-yl}-1H-pyrazol-1-yl)benzonitrile]	< 1
CCCC(C)n1c(-c2ccnn2-c2ccc(C#N)cc2)c(C)n(-c2cccc(C(F)(F)F)c2)c1=O (stereo not drawn) [Example 28, 4-{5-[5-Methyl-3-(1-methyl-butyl)-2-oxo-1-(3-trifluoromethyl-phenyl)-2,3-dihydro-1H-imidazol-4-yl]pyrazol-1-yl}-benzonitrile]	1 to 10
Cc1c(-c2ccnn2-c2ccc(C#N)cc2)n(CCN(C)C)c(=O)n1-c1cccc(C(F)(F)F)c1 [Example 29, 4-{5-[3-(2-Dimethylamino-ethyl)-5-methyl-2-oxo-1-(3-trifluoromethylphenyl)-2,3-dihydro-1H-imidazol-4-yl]-pyrazol-1-yl}-benzonitrile]	1 to 10
Cc1c(-c2ccnn2-c2ccc(C#N)cc2)n(CCCN(C)C)c(=O)n1-c1cccc(C(F)(F)F)c1 [Example 30, 4-{5-[3-(3-Dimethylamino-propyl)-5-methyl-2-oxo-1-(3-trifluoromethylphenyl)-2,3-dihydro-1H-imidazol-4-yl]-pyrazol-1-yl}-benzonitrile]	1 to 10
CCCS(=O)(=O)n1c(-c2ccnn2-c2ccc(C#N)cc2)c(C)n(-c2cccc(C(F)(F)F)c2)c1=O [Example 31, 4-{5-[5-Methyl-2-oxo-3-(propane-1-sulfonyl)-1-(3-trifluoromethyl-phenyl)-2,3-dihydro-1H-imidazol-4-yl]-pyrazol-1-yl}-benzonitrile]	1 to 10
Cc1c(-c2ccnn2-c2ccc(C#N)cc2)n(S(=O)(=O)C2CC2)c(=O)n1-c1cccc(C(F)(F)F)c1 [Example 32, 4-{5-[3-Cyclopropanesulfonyl-5-methyl-2-oxo-1-(3-trifluoromethyl-phenyl)-2,3-dihydro-1H-imidazol-4-yl]-pyrazol-1-yl}-benzonitrile]	< 1
CCNS(=O)(=O)n1c(-c2ccnn2-c2ccc(C#N)cc2)c(C)n(-c2cccc(C(F)(F)F)c2)c1=O [Example 33, 5-[2-(4-Cyano-phenyl)-2H-pyrazol-3-yl]-4-methyl-2-oxo-3-(3-trifluoromethylphenyl)-2,3-dihydro-imidazole-1-sulfonic acid ethylamide]	1 to 10
Cc1c(-c2ccnn2-c2ccc(C#N)cc2)n(CC(=O)N2CCCC2)c(=O)n1-c1cccc(C(F)(F)F)c1 [Example 36, 4-{5-[5-Methyl-2-oxo-3-(2-oxo-2-pyrrolidin-1-yl-ethyl)-1-(3-trifluoromethylphenyl)-2,3-dihydro-1H-imidazol-4-yl]-pyrazol-1-yl}-benzonitrile]	1 to 10
Cc1c(-c2ccnn2-c2ccc(C#N)cc2)n(CC(=O)N(C)C)c(=O)n1-c1cccc(C(F)(F)F)c1 [Example 37, 2-[5-[2-(4-Cyano-phenyl)-2H-pyrazol-3-yl]-4-methyl-2-oxo-3-(3-trifluoromethyl-phenyl)-2,3-dihydro-imidazol-1-yl]-N,N-dimethyl-acetamide]	1 to 10
Cc1c(-c2ccnn2-c2ccc(C#N)cc2)n(CC(=O)N2CCN(C)CC2)c(=O)n1-c1cccc(C(F)(F)F)c1 [Example 38, 4-{5-[5-Methyl-3-[2-(4-methyl-piperazin-1-yl)-2-oxo-ethyl]-2-oxo-1-(3-trifluoromethyl-phenyl)-2,3-dihydro-1H-imidazol-4-yl]-pyrazol-1-yl}-benzonitrile]	1 to 10
Cc1c(-c2ccnn2-c2ccc(C#N)cc2)n(CC(=O)NCCCN(C)C)c(=O)n1-c1cccc(C(F)(F)F)c1 [Example 39, 2-[5-[2-(4-Cyano-phenyl)-2H-pyrazol-3-yl]-4-methyl-2-oxo-3-(3-trifluoromethyl-phenyl)-2,3-dihydro-imidazol-1-yl]-N-(3-dimethylaminopropyl)-acetamide formic acid salt]	10 to 50
